Measured values: patent US20190240225A1, “COMBINATION OF A BCL-2 INHIBITOR AND A MCL-1 INHIBITOR, USES AND PHARMACEUTICAL COMPOSITIONS THEREOF” (LES LABORATOIRES SERVIER, priority 2016, published 2019)
Like-named read-outs stand apart in the source and are kept apart here.

Tests used:
Type in all cases: cell-based
SU-DHL-8 = test: CellTiterGlo viability, DLBCL cell line; conditions: single agent, 2 days; for IC50: read-out: Abs IC50
Protocol: (§5) In addition, all media contained penicillin (100 IU/ml), streptomycin (100 μg/ml) and L-glutamine (2 mM). Unless otherwise mentioned, culture media and supplements were from Amimed/Bioconcept (Allschwil, Switzerland).
(§6) Cell lines were cultured at 37° C. in a humidified atmosphere containing 5% CO2 and expanded in T-75 flasks. In all cases cells were thawed from frozen stocks, expanded through ≥1 passage using appropriate dilutions, counted and assessed for viability using a CASY cell counter (Omni Life Science, Bremen, Germany) prior to plating 25 ul/well at the densities indicated in Table 1 into 384-well plates (Corning). All cell lines were determined to be free of mycoplasma contamination by PCR assay performed at Idexx Radii (Columbia, Mo., USA) and misidentification ruled out by assessment of a panel of 48 Small Nucleotide Polymorphisms (SNPs) at Asuragen (Austin, Tex., USA) or in-house.
(§7) Stock solutions of compounds were prepared at a concentration of 10 mM in DMSO (Sigma) and stored at −20° C. Where necessary to afford a full dose-response curve, the stock solutions were pre-diluted in DMSO to 1′000-fold the desired start concentration (see Table 2). On the day after cell seeding, eight 2.5-fold serial dilutions of each compound were dispensed, either individually or in all possible permutations in a checkerboard fashion, directly into the cell assay plates using a non-contact 300D Digital Dispenser (ILCAN, Mannedorf, Switzerland) as outlined in FIG. 4. The final concentration of DMSO was 0.2% in all wells.
(§8) Effects of the single agents as well as their checkerboard combinations on cell viability were assessed after 2 days of incubation at 37° C./5% CO2 by quantification of cellular ATP levels using CellTiterGlo (Promega, Madison, Wis., USA) at 25 μL reagent/well and n=2 replicate plates per condition. Luminescence was quantified on a M1000 multipurpose platereader (ILCAN, Mannedorf, Switzerland). The number/viability of cells at time of compound addition was likewise assessed and used to assess the degree of the population doubling time of a particular cell line.
(§9) Single agent IC50s were calculated using standard four-parametric curve fitting. […] IC50 are defined as the compound concentration at which the CTG signal is reduced to 50% of that measured for the vehicle (DMSO) control.

U-937 = test: CellTiterGlo viability, DLBCL cell line; conditions: single agent, 2 days; for IC50: read-out: Abs IC50
Protocol: as §5, §6, §7, §8, §9

HT = test: CellTiterGlo viability, DLBCL cell line; conditions: single agent, 2 days; for IC50: read-out: Abs IC50
Protocol: as §5, §6, §7, §8
(§10) Single agent IC50s were calculated using standard four-parametric curve fitting. […] All calculations were performed using the Combination Analysis Module in-house software. IC50 are defined as the compound concentration at which the CTG signal is reduced to 50% of that measured for the vehicle (DMSO) control.

Toledo = test: CellTiterGlo viability, DLBCL cell line; conditions: for IC50 / Max Inh: Toledo, single agent, 2 days; for IC50: read-out: Abs IC50
Protocol: as §5, §6, §7, §8, §10

Pfeiffer = test: CellTiterGlo viability, DLBCL cell line; conditions: single agent, 2 days; for IC50: read-out: Abs IC50
Protocol: as §5
(§11) Cell lines were cultured at 37° C. in a humidified atmosphere containing 5% CO2 and expanded in T-75 flasks. In all cases cells were thawed from frozen stocks, expanded through ≥1 passage using appropriate dilutions, counted and assessed for viability using a CASY cell counter (Omni Life Science, Bremen, Germany) prior to plating 25 ul/well at the densities indicated in Table 1 into 384-well plates (Corning).
as §7, §8, §9

SU-DHL-6 = test: CellTiterGlo viability, DLBCL cell line; conditions: single agent, 2 days; for IC50: read-out: Abs IC50
Protocol: as §5, §6, §7, §8, §9

TALL-104 = test: CellTiterGlo viability, T-ALL cell line; conditions: single agent, 72 h
Protocol: (§1) In addition, all media contained penicillin (100 IU/ml), streptomycin (100 μg/ml) and L-glutamine (2 mM). Cell lines were cultured at 37° C. in a humidified atmosphere containing 5% CO2 and expanded in T-150 flasks. In all cases cells were thawed from frozen stocks, expanded through ≥1 passage using appropriate dilutions, counted and assessed for viability using a CASY cell counter prior to plating 150 ul/well at the densities indicated in Table 9 into 96-well plates. All cell lines were determined to be free of mycoplasma contamination in-house.
(§2) Stock solutions of compounds were prepared at a concentration of 5 mM in DMSO and stored at −20° C. In order to analyse the activity of the compounds as single agents, cells were seeded and treated with nine 2-fold serial dilutions of each compound dispensed individually directly into the cell assay plates. Effects of the compounds on cell viability were assessed after 3 days of incubation at 37° C./5% CO2 by quantification of cellular ATP levels using CellTiterGlo at 75 μL reagent/well. All the conditions were tested in triplicates. Luminescence was quantified on a multipurpose plate reader. Single agent IC50s were calculated using standard four-parametric curve fitting. IC50 is defined as the compound concentration at which the CTG signal is reduced to 50% of that measured for the vehicle (DMSO) control.
(§3) In order to analyse the activity of the compounds in combination, cells were seeded and treated with seven or eight 3.16-fold serial dilutions of each compound dispensed, either individually or in all possible permutations in a checkerboard fashion, directly into the cell assay plates as indicated in FIG. 1. Effects of the single agents as well as their checkerboard combinations on cell viability were assessed after 3 days of incubation at 37° C./5% CO2 by quantification of cellular ATP levels using CellTiterGlo at 75 μL reagent/well. For B-ALL cell lines, two independent experiments, each one performed in duplicates, were performed. For T-ALL cell lines, one experiment performed in triplicate was performed. Luminescence was quantified on a multipurpose plate reader.
(§4) Potential synergistic interactions between compound combinations were assessed using the Excess Inhibition 2D matrix according to the Loewe additivity model and are reported as Synergy Score (Lehar et al, Nat Biotechnol. 2009 July; 27(7): 659-666). All calculations were performed using Chalice TM Bioinformatics Software available in Horizon website. The doubling time indicated in Table 9 is the mean of the doubling time obtained in the different passages (in T-150 flasks) performed from the thawing of the cells to their seeding in the 96-well plates.

CML-T1 = test: CellTiterGlo viability, T-ALL cell line; conditions: single agent, 72 h
Protocol: as §1, §2, §3, §4

DND-41 = test: CellTiterGlo viability, T-ALL cell line; conditions: 72 h
Protocol: as §1, §2, §3, §4

MOLT-4 = test: CellTiterGlo viability, T-ALL cell line; conditions: single agent, 72 h
Protocol: as §1, §2, §3, §4

BE-13 = test: CellTiterGlo viability, T-ALL cell line; conditions: single agent, 72 h
Protocol: as §1, §2, §3, §4

HPB-ALL = test: CellTiterGlo viability, T-ALL cell line; conditions: single agent, 72 h
Protocol: as §1, §2, §3, §4

NALM-6 = test: CellTiterGlo viability, B-ALL cell line; conditions: for IC50: NALM-6, B-ALL, single agent, 72 h; for growth inhibition: NALM-6 cells, fourth lowest concentration tested (FIG. 11, top left panel)
Protocol: In addition, all media contained penicillin (100 IU/ml), streptomycin (100 μg/ml) and L-glutamine (2 mM). […] All cell lines were determined to be free of mycoplasma contamination in-house. Stock solutions of compounds were prepared at a concentration of 5 mM in DMSO and stored at −20° C. In order to analyse the activity of the compounds as single agents, cells were seeded and treated with nine 2-fold serial dilutions of each compound dispensed individually directly into the cell assay plates. […] All the conditions were tested in triplicates. Luminescence was quantified on a multipurpose plate reader. Single agent IC50s were calculated using standard four-parametric curve fitting. […] In order to analyse the activity of the compounds in combination, cells were seeded and treated with seven or eight 3.16-fold serial dilutions of each compound dispensed, either individually or in all possible permutations in a checkerboard fashion, directly into the cell assay plates as indicated in FIG. 1. […] For B-ALL cell lines, two independent experiments, each one performed in duplicates, were performed. For T-ALL cell lines, one experiment performed in triplicate was performed. Luminescence was quantified on a multipurpose plate reader. […] All calculations were performed using Chalice TM Bioinformatics Software available in Horizon website.

NU-DHL-1 = test: CellTiterGlo viability, DLBCL cell line; conditions: single agent, 2 days; for IC50: read-out: Abs IC50
Protocol: as §5, §11, §7, §8, §9

SU-DHL-10 = test: CellTiterGlo viability, DLBCL cell line; conditions: single agent, 2 days; for IC50: read-out: Abs IC50
Protocol: as §5, §6, §7, §8, §9

## Cl.O=C(c1cc(-c2cc3c(cc2C(=O)N2Cc4ccccc4C[C@H]2CN2CCOCC2)OCO3)n2c1CCCC2)N(c1ccccc1)c1ccc(O)cc1 [Compound 1, HCl, N-(4-hydroxyphenyl)-3-{6-[((3S)-3-(4-morpholinylmethyl)-3,4-dihydro-2(1H)-isoquinolinyl)carbonyl]-1,3-benzodioxol-5-yl}-N-phenyl-5,6,7,8-tetrahydro-1-indolizine carboxamide hydrochloride]
SU-DHL-8; Homo sapiens, 48 h
  IC50: ≥ 10000 nM
SU-DHL-8
  Max Inh: 28.7%
U-937; Homo sapiens, 48 h
  IC50: 6830 nM
U-937
  Max Inh: 62.1%
HT; Homo sapiens, 48 h
  IC50: ≥ 10000 nM
HT
  Max Inh: 37.2%
Toledo; Homo sapiens, 48 h
  IC50: 137 nM
Toledo
  Max Inh: 101.9%
Pfeiffer; Homo sapiens, 48 h
  IC50: 4500 nM
Pfeiffer
  Max Inh: 92.0%
SU-DHL-6; Homo sapiens, 48 h
  IC50: 614 nM
SU-DHL-6
  Max Inh: 101.0%
TALL-104
  IC50: 15900 nM
CML-T1
  IC50: 15000 nM
DND-41; DND41, single agent
  IC50: 9000 nM
MOLT-4; Homo sapiens
  IC50: 3290 nM
BE-13
  IC50: 6700 nM
HPB-ALL; Homo sapiens, HPBALL
  IC50: 4500 nM
NALM-6; Homo sapiens
  IC50: 3630 nM
NALM-6
  growth inhibition: 8%
NU-DHL-1; Homo sapiens, 48 h
  IC50: 51.5 nM
NU-DHL-1
  Max Inh: 102.1%
SU-DHL-10; Homo sapiens, SU-DHL10, 48 h
  IC50: ≥ 10000 nM
SU-DHL-10
  Max Inh: 43.9%

## COc1ccccc1-c1nccc(COc2ccccc2C[C@@H](Oc2ncnc3sc(-c4ccc(F)cc4)c(-c4ccc(OCCN5CCN(C)CC5)c(Cl)c4C)c23)C(=O)O)n1 [Compound 3, (2R)-2-{[(5Sa)-5-{3-chloro-2-methyl-4-[2-(4-methylpiperazin-1-yl)ethoxy]phenyl}-6-(4-fluorophenyl)thieno[2,3-d]pyrimidin-4-yl]oxy}-3-(2-{[2-(2-methoxyphenyl)pyrimidin-4-yl]methoxy}phenyl)propanoic acid]
SU-DHL-8
  Max Inh: 95.6%
  IC50: 305 nM
U-937
  Max Inh: 97.1%
  IC50: 8.32 nM
HT
  Max Inh: 99.3%
  IC50: 6.38 nM
Toledo; Toledo cells, Compound 3 at the highest concentration tested, combination with the second lowest concentration of Compound 1 (FIG. 4B)
  growth inhibition: 46%
Toledo
  Max Inh: 45.8%
  IC50: ≥ 1000 nM
Pfeiffer
  Max Inh: 82.7%
  IC50: 42.6 nM
SU-DHL-6
  Max Inh: 99.1%
  IC50: 2.13 nM
TALL-104
  IC50: 44 nM
CML-T1
  IC50: 6000 nM
DND-41; single agent
  IC50: 7000 nM
MOLT-4
  IC50: 26 nM
BE-13
  IC50: 15 nM
HPB-ALL
  IC50: 660 nM
NALM-6
  IC50: 120 nM
  growth inhibition: 6%
NU-DHL-1
  Max Inh: 98.1%
  IC50: 57.9 nM
SU-DHL-10
  Max Inh: 98.3%
  IC50: 3.84 nM
